Key:
[1] = system: P. falciparum 3D7 (CQ-sensitive); assay: HRP2-based ELISA growth inhibition, 3D7 strain; type: cell-based; conditions: Plasmodium falciparum, unmarked values: HRP II ELISA, 72 h
From the text: (§1) Highly sensitive HRP2-based ELISA and [^3H]-hypoxanthine incorporation assay were used as markers for inhibition of parasite growth as previously described (12, 14). A solvent control and a chloroquine (CQ) control were included in the HRP2-based ELISA. CQ, lumefantrine and artesunate were included as controls in the [^3H]-hypoxanthine assay series.
(§2) The assay protocol of the HRP2-based ELISA is described in more detail in the following paragraphs.
(§3) The P. falciparum clones were maintained in continuous culture as described previously (10). Briefly, 3D7 (CQ-sensitive), NF54, and K1 (CQ-resistant) P. falciparum clones were obtained from MR4/American Type Culture Collection, Manassas, Va., USA under the accession numbers MR4-102 (3D7), MRA-1000 (NF54), and MR4-159 (K1). P. falciparum cultures were maintained in 25 cm^2 flasks. Parasites were cultured in RPMI 1640 (Sigma Aldrich, Austria) medium containing 10% human serum at a hematocrit of 5% (blood group 0 negative) at 37° C. under an atmosphere of 5% CO2, 5% O2 and 90% N2. The medium was changed every 24 to 48 hours. The culture was diluted and fresh erythrocytes were added whenever the parasite density reached >1%.
(§4) Stock solutions of compounds of formula I were prepared in DMSO (10 mg/mL). Stock concentrations of chloroquine and lumefantrine always remained 1 mg/mL and were prepared in 70% ethanol. Coating of culture plates with compounds of formula I and controls: 96 wells culture plates were coated as described previously (11). Working standards were prepared by diluting the stock solutions in RPMI1640 to obtain the desired final concentrations. Serial three-fold dilutions (seven concentrations and one drug-free control well) of the drugs (25 μL/well) were dispensed in duplicate into standard 96-well micro culture plates. Chloroquine was included as a reference drug in all experiments.
(§5) After reaching a parasitemia of 5% or higher, 5 mL of cell medium mixture were centrifuged at 700 g for 5 minutes at room temperature (RT). Packed red cells were resuspended in 3 mL of 5% D-sorbitol (Sigma Aldrich, Austria) in water at RT and immediately centrifuged again at 700 g for 5 minutes at RT followed by three washes with 3 mL of RPMI1640 medium. […].
(§6) Samples were diluted with RPMI1640 medium containing 0.5% Albumax II (GIBCO, Invitrogen, Vienna, Austria) by adding uninfected red blood cells to 1.5% hematocrit and 0.05% parasitemia. 150 μL of this cell medium mixture was then added to each well of 96-well plates precoated with test compounds and incubated at 37° C. for 72 hours in a gas mixture containing 5% CO2, 5% O2, and 90% N2. After 72 hours the plates were frozen at −20° C. until the histidine rich protein II assay (23).
(§7) A highly sensitive HRPII ELISA was used based on two commercially available monoclonal antibodies (Immunology Consultants Laboratory, Inc., Newberg, Oreg.) directed against P. falciparum-specific HRPII: MPFM-55A, an immunoglobulin M antibody served as the primary capture antibody and HRP-conjugated MPFG-55P (Immunology Consultants Laboratory, Inc., Newberg, Oreg.) as secondary antibody. The ELISA was employed to assess growth inhibition as a measure of drug susceptibility as previously described. Optical density was measured at 450 nm using a standard ELISA plate reader (12-13).
(§8) Hyperbolic concentration response curves were fitted to the data points by nonlinear least squares using the solver add-in of the Excel software.
(§9) Indicated in TABLE 2 are the IC50 [μM] values for growth inhibition of the 3D7 (NF54) and K1 strains of P. falciparum for the compounds of formula I indicated with their formula numbers in TABLE 2. Unmarked IC50 values for K1 and 3D7 strains of P. falciparum have been determined by HRP II enzyme linked immunosorbent assay (ELISA) as described above. […]

[2] = system: P. falciparum K1 (CQ-resistant); assay: HRP2-based ELISA growth inhibition, K1 strain; type: cell-based; conditions: Plasmodium falciparum, unmarked values: HRP II ELISA, 72 h
From the text: as §1, §2, §3, §4, §5, §6, §7, §8, §9

[3] = system: P. falciparum NF54 (CQ sensitive); assay: [3H]-hypoxanthine incorporation assay, NF54 strain; type: cell-based; conditions: Plasmodium falciparum, values marked with asterisk: [3H]-hypoxanthine assay, read-out: IC50 growth inhibition NF54*
[4] = system: P. falciparum K1 (CQ-resistant); assay: [3H]-hypoxanthine incorporation assay, K1 strain; type: cell-based; conditions: Plasmodium falciparum, values marked with asterisk: [3H]-hypoxanthine assay, read-out: IC50 growth inhibition K1 (*)
[5] = system: P. berghei, ANKA strain, GFP MRA-865; assay: P. berghei rodent malaria 4-day suppressive test; type: in vivo, Plasmodium berghei; conditions: NMRI mice, 30 mg/kg 4x i.p.; for % activity (percent reduction of parasitemia) / % of control: day 4; for avg.Day 4 (parasitemia): day 4 (96 h post-infection); for % of control: control group taken as 100%
Description: Primary biological assessment of in vivo antimalarial efficacy of the compounds of the present invention was assessed using the P. berghei rodent malaria 4-day suppressive test as recently described (14) (parasite: P. berghei, ANKA strain, GFP MRA-865; mice: NMRI mice, SPF, females, 25±2 g. free from Eperythrozoon coccoides and Haemobartonella muris). The experimental groups were treated with a single dose of compounds of the present invention (30 mg/kg) by the i.p. route. The compounds were prepared at an appropriate concentration, as a solution or suspension containing 7% Tween80/3% ethanol. Day 1 to 3 (24 h, 48 h and 72 h post-infection), the experimental groups of mice were treated again with the same dose and by the same route as on day 0. Day 4 (24 h after the last treatment, i.e. 96 h post-infection), blood smears from all animals are prepared and stained with Giemsa. Parasitemia was determined as described elsewhere (14). The difference between the mean value of the control group (taken as 100%) and those of the experimental groups was calculated and expressed as percent reduction (=activity).
Indicated in TABLE 3 below are the percent reduction values for growth inhibition of the Plasmodium berghei parasite for the compounds of formula I indicated with their formula numbers of TABLE 2. Correlation of the formula numbers and chemical structures are set out in TABLE 1 of the example part.

[6] = system: chloroquine (CQ) sensitive (3D7) strain of P. falciparum; assay: antimalarial activity against 3D7 compared to propafenone (data not shown); type: cell-based

Row | SMILES | IC50 [1] [nM] | IC50 [2] [nM] | also measured
1 | O=C(Nc1ccc(F)cc1F)c1ccccc1OCC(O)CNCC12CC3CC(CC(C3)C1)C2 (stereo not drawn) [Compound I-39, 2-{3-[(Adamantan-1-ylmethyl)-amino]-2-hydroxy-propoxy}-N-(2,4-difluoro-phenyl)-benzamide] | – | – | IC50 [3]: 9 nM; IC50 [4]: 3 nM; % activity (percent reduction of parasitemia) [5]: 49.01%; avg.Day 4 (parasitemia) [5]: 30.40; % of control [5]: 50.99%
2 | Cc1ccc(NC(=O)c2ccccc2OCC(O)CNCC23CC4CC(CC(C4)C2)C3)cc1 (stereo not drawn) [Compound I-40, 2-{3-[(Adamantan-1-ylmethyl)-amino]-2-hydroxy-propoxy}-N-p-tolyl-benzamide] | – | – | IC50 [3]: 6 nM; IC50 [4]: 2 nM; % activity (percent reduction of parasitemia) [5]: 58.24%; avg.Day 4 (parasitemia) [5]: 24.90; % of control [5]: 41.76%
3 | Cc1ccc(NC(=O)c2ccccc2OCC(O)CNC(C)C23CC4CC(CC(C4)C2)C3)cc1 (stereo not drawn) [Compound I-41, 2-[3-(1-Adamantan-1-yl-ethylamino)-2-hydroxy-propoxy]-N-p-tolyl-benzamide] | 70 | 12 | –
4 | O=C(Nc1cccc(C(F)(F)F)c1)c1ccccc1OCC(O)CNCC12CC3CC(CC(C3)C1)C2 (stereo not drawn) [Compound I-42, 2-{3-[(Adamantan-1-ylmethyl)-amino]-2-hydroxy-propoxy}-N-(3-trifluoromethyl-phenyl)-benzamide] | – | – | IC50 [3]: 2 nM; IC50 [4]: 0.5 nM; % activity (percent reduction of parasitemia) [5]: 97.76%; avg.Day 4 (parasitemia) [5]: 1.33; % of control [5]: 2.24%
5 | O=C(c1ccccc1)c1ccc(CNCC(O)COc2ccccc2C(=O)NCc2ccccc2)cc1 (stereo not drawn) [Compound I-49, 2-[3-(4-Benzoyl-benzylamino)-2-hydroxy-propoxy]-N-benzyl-benzamide] | 9300 | 3230 | –
6 | COc1ccc(CNC(=O)c2ccccc2OCC(O)CN2CCN(c3cccc(C)c3C)CC2)cc1 (stereo not drawn) [Compound I-51, 2-{3-[4-(2,3-Dimethyl-phenyl)-piperazin-1-yl]-2-hydroxy-propoxy}-N-(4-methoxy-benzyl)-benzamide] | 2020 | 134 | –
7 | O=C(NCc1ccccc1)c1ccccc1OCC(O)CNC1CCCCCCCCCCC1 (stereo not drawn) [Compound I-52, N-Benzyl-2-(3-cyclododecylamino-2-hydroxy-propoxy)-benzamide] | 561 | 52 | –
8 | O=C(NCc1ccccc1)c1ccccc1OCC(O)CNC1CCCCCCC1 (stereo not drawn) [Compound I-53, N-Benzyl-2-(3-cyclooctylamino-2-hydroxy-propoxy)-benzamide] | 197 | 29 | –
9 | CCCNCC(O)COc1ccccc1C(=O)Nc1ccc(C)cc1 (stereo not drawn) [Compound I-54, 2-(2-Hydroxy-3-propylamino-propoxy)-N-p-tolyl-benzamide] | 276 | 85 | –
10 | O=C(Nc1ccc(F)cc1)c1ccccc1OCC(O)CNCC12CC3CC(CC(C3)C1)C2 (stereo not drawn) [Compound I-55, 2-{3-[(Adamantan-1-ylmethyl)-amino]-2-hydroxy-propoxy}-N-(4-fluoro-phenyl)-benzamide] | – | – | IC50 [3]: 6 nM; IC50 [4]: 2 nM; % activity (percent reduction of parasitemia) [5]: 67.35%; avg.Day 4 (parasitemia) [5]: 19.47; % of control [5]: 32.65%
11 | O=C(NCc1ccccc1)c1ccccc1OCC(O)CNCCC12CC3CC(CC(C3)C1)C2 (stereo not drawn) [Compound I-62, 2-[3-(2-Adamantan-1-yl-ethylamino)-2-hydroxy-propoxy]-N-benzyl-benzamide] | 704 | 30 | –
12 | CN(CC(O)COc1ccccc1C(=O)NCc1ccc(C(C)(C)C)cc1)C1C2CC3CC(C2)CC1C3 (stereo not drawn) [Compound I-64, 2-[3-(Adamantan-2-yl-methyl-amino)-2-hydroxy-propoxy]-N-(4-tert-butyl-benzyl)-benzamide] | 1480 | 397 | –
13 | CCCNCC(O)COc1ccccc1C(=O)NCc1ccccc1 (stereo not drawn) [aza-propafenone] | – | – | decrease in IC50-value compared to propafenone (A) [6]: seventy-fold decrease

The remaining compounds from weak to strong by IC50 [1], led by results:

Row | IC50 [1] [nM] | IC50 [2] [nM] | SMILES | also measured
14 | 9490 | 982 | C#CCOc1cc(CN(CCC)CC(O)COc2ccccc2C(=O)NCc2ccccc2)ccc1OC (stereo not drawn) [Compound I-63, N-Benzyl-2-{2-hydroxy-3-[(4-methoxy-3-prop-2-ynyloxy-benzyl)-propyl-amino]-propoxy}-benzamide] | –
15 | 1750 | 403 | O=C(NCc1ccccc1)c1ccccc1OCC(O)CNCCCc1ccccc1 (stereo not drawn) [Compound I-50, N-Benzyl-2-[2-hydroxy-3-(3-phenyl-propylamino)-propoxy]-benzamide] | –
16 | 1310 | 466 | C#CCOc1ccc(OCC(O)CNCc2ccc(C3(C(F)(F)F)N=N3)cc2)c(C(=O)NCCC(C)C)c1 (stereo not drawn) [Compound I-44, 2-{2-Hydroxy-3-[4-(3-trifluoromethyl-3H-diazirin-3-yl)-benzylamino]-propoxy}-N-(3-methyl-butyl)-5-prop-2-ynyloxy-benzamide] | –
17 | 309 | 90 | CC(NCC(O)COc1ccccc1C(=O)NCc1ccccc1)C12CC3CC(CC(C3)C1)C2 (stereo not drawn) [Compound I-28, 2-[3-(1-Adamantan-1-yl-ethylamino)-2-hydroxy-propoxy]-N-benzyl-benzamide] | –
18 | 226 | 34 | O=C(NCc1ccccc1)c1ccccc1OCC(O)CN(CCCc1ccccc1)C1C2CC3CC(C2)CC1C3 (stereo not drawn) [Compound I-23, 2-{3-[Adamantan-2-yl-(3-phenyl-propyl)-amino]-2-hydroxy-propoxy}-N-benzyl-benzamide] | –
19 | 177 | 50 | O=C(NCc1ccccc1)c1ccccc1OCC(O)CNCC12CC3CC(CC(C3)C1)C2 (stereo not drawn) [Compound I-27, 2-{3-[(Adamantan-1-ylmethyl)-amino]-2-hydroxy-propoxy}-N-benzyl-benzamide] | –
20 | 97 | 5 | COc1ccccc1CNC(=O)c1ccccc1OCC(O)CNCC12CC3CC(CC(C3)C1)C2 (stereo not drawn) [Compound I-29, 2-{3-[(Adamantan-1-ylmethyl)-amino]-2-hydroxy-propoxy}-N-(2-methoxy-benzyl)-benzamide] | –

Source: patent US20150141437A1, “AMIDOPHENOXYPROPANOLAMINES” (MEDIZINISCHE UNIVERSITÄT WIEN, priority 2012, published 2015)
